39 compounds from patent US11312704B2, “Inhibitors of cysteine proteases and methods of use thereof” (priority 2020, dated 2022) can be followed below.

A value given as a limit tells only on which side of the number the result lay.

As usually defined, the EC50 is the midpoint of the concentration-response curve. A higher EC50 goes with lower potency in that assay.

The test system of the assay is HCoV 229E. Kind of assay: HCoV 229E cytopathic effect (CPE) assay. Format: cell-based, Human Coronavirus (HCov) 229E. The conditions noted are these: CellTiter Glo. A general note: Protection from cytopathic effect is a common read-out in antiviral testing.
Experimental: The antiviral activity of compounds was calculated based on the protection of the virus-induced CPE at each concentration normalized by the virus control.
Reagents and instruments used in this assay include luminescent cell viability assay kit CellTiter Glo (Promega) and Microplate Reader Synergy2 (BioTek).
Cytopathic effect (CPE) was measured by CellTiter Glo following the manufacturer's manual. The antiviral activity of compounds was calculated based on the protection of the virus-induced CPE at each concentration normalized by the virus control.
In turn, `COc1cccc2[nH]c(C(=O)N[C@@H](CC(C)C)C(=O)N[C@@H](C[C@@H]3CCNC3=O)C(O)C#N)cc12` (single isomer, unassigned) [134 (Isomer 1)] yielded an EC50 of under 2 µM.

In the case of `COc1cccc2[nH]c(C(=O)N[C@@H](CC(C)C)C(=O)N[C@@H](C[C@@H]3CCNC3=O)C(C#N)NC(C)(C)C)cc12` (single isomer, unassigned) [323 (Isomer 1)], the EC50 was under 2 µM. For the compound `COc1cccc2[nH]c(C(=O)N[C@@H](CC(C)C)C(=O)N[C@@H](C[C@@H]3CCNC3=O)C(C#N)N3CCCC3)cc12` (single isomer, unassigned) [331 (Isomer 1)], the EC50 is under 2 µM. In turn, `COc1cccc2[nH]c(C(=O)N3C[C@H](c4ccccc4)C[C@H]3C(=O)N[C@@H](C[C@@H]3CCNC3=O)C(O)C#N)cc12` (single isomer, unassigned) [345 (Isomer 2)] returned a concentration for a half-maximal effect (EC50) of under 2 µM.

The compound `COc1cccc2[nH]c(C(=O)N3CC(C45CC(C4)C5)C[C@H]3C(=O)N[C@H](C#N)C[C@@H]3CCNC3=O)cc12` (single isomer, unassigned) [385 (Isomer 1)] returned a concentration for a half-maximal effect (EC50) of under 2 µM. `COc1cccc2[nH]c(C(=O)N3CC4(CCCCC4)CC3C(=O)N[C@H](C#N)C[C@@H]3CCNC3=O)cc12` (single isomer, unassigned) [389A (Isomer 1)] registered an EC50 of under 2 µM.

On to `COc1cccc2[nH]c(C(=O)N[C@@H](CC(C)C)C(=O)N[C@@H](C[C@@H]3CCNC3=O)C(C#N)NCc3ccccc3)cc12` (single isomer, unassigned) [507 (Isomer 1.1)], for which the EC50 was under 2 µM. As for `COc1cccc2[nH]c(C(=O)N3CC4(CCCCC4)CC3C(=O)N[C@H](C#N)C[C@@H]3CCCNC3=O)cc12` (single isomer, unassigned) [681 (Isomer 1)], the EC50 is under 2 µM. As for `COc1cccc2[nH]c(C(=O)N[C@@H](CC(C)C)C(=O)N[C@@H](C[C@@H]3CCNC3=O)C(O)C#N)cc12` (single isomer, unassigned; isomer 2) [135 (Isomer 2)], the EC50 was under 2 µM. On to `COc1cccc2[nH]c(C(=O)N[C@@H](CC(C)C)C(=O)N[C@H](C#N)C[C@@H]3CCNC3=O)cc12` [Compound 101, N-[(1S)-1-[[(1S)-1-cyano-2-[(3S)-2-oxopyrrolidin-3-yl]ethyl]carbamoyl]-3-methyl-butyl]-4-methoxy-1H-indole-2-carboxamide], for which the EC50 is under 2 µM. `CC(C)C[C@H](NC(=O)c1nc2ccccc2[nH]1)C(=O)N[C@H](C#N)C[C@@H]1CCNC1=O` [Compound 103, N-[(1S)-1-[[(1S)-1-cyano-2-[(3S)-2-oxopyrrolidin-3-yl]ethyl]carbamoyl]-3-methyl-butyl]-1H-benzimidazole-2-carboxamide] showed an EC50 of under 2 µM. The compound `CC(C)C[C@H](NC(=O)c1nc2cccc(Cl)c2[nH]1)C(=O)N[C@H](C#N)C[C@@H]1CCNC1=O` [Compound 133] registered an EC50 of under 2 µM.

For `COc1cccc2[nH]c(C(=O)NC(CC(C)C)C(=O)NC(CC3CCNC3=O)C(O)C#N)cc12` [Compound 134, N-[(1S)-1-[[(1S)-2-cyano-2-hydroxy-1-[[(3S)-2-oxopyrrolidin-3-yl]methyl]ethyl]carbamoyl]-3-methyl-butyl]-4-methoxy-1H-indole-2-carboxamide], the EC50 is under 2 µM. For the compound `COc1cccc2[nH]c(C(=O)N3C[C@H](c4ccccc4)C[C@H]3C(=O)N[C@H](C#N)C[C@@H]3CCNC3=O)cc12` [Compound 171], the EC50 is under 2 µM. The value for `COc1cccc2[nH]c(C(=O)N[C@@H](CC3CCCCC3)C(=O)N[C@H](C#N)C[C@@H]3CCNC3=O)cc12` [Compound 185, N-[(1S)-2-[[(1S)-1-cyano-2-[(3S)-2-oxopyrrolidin-3-yl]ethyl]amino]-1-(cyclohexylmethyl)-2-oxo-ethyl]-4-methoxy-1H-indole-2-carboxamide] was under 2 µM.

As for `COc1cccc2[nH]c(C(=O)N3C[C@H]4C([C@H]3C(=O)N[C@H](C#N)C[C@@H]3CCNC3=O)C4(C)C)cc12` (stereo partly drawn) [Compound 197, (2S,5S)—N-[(1S)-1-cyano-2-[(3S)-2-oxopyrrolidin-3-yl]ethyl]-3-(4-methoxy-1H-indole-2-carbonyl)-6,6-dimethyl-3-azabicyclo[3.1.0]hexane-2-carboxamide], the EC50 is under 2 µM. The value for `COc1cccc2[nH]c(C(=O)N[C@@H](CC3CC3)C(=O)N[C@H](C#N)C[C@@H]3CCNC3=O)cc12` [Compound 205, N—((S)-1-(((S)-1-cyano-2-((S)-2-oxopyrrolidin-3-yl)ethyl)amino)-3-cyclopropyl-1-oxopropan-2-yl)-4-methoxy-1H-indole-2-carboxamide] was under 2 µM. `COc1cccc2[nH]c(C(=O)N[C@@H](CC(C)C)C(=O)N[C@@H](C[C@@H]3CCNC3=O)C(C#N)N[C@@H](C)c3ccccc3)cc12` (stereo partly drawn) [Compound 329] had an EC50 of under 2 µM.

For `COc1cccc2[nH]c(C(=O)N3C[C@H](c4ccccc4)CC3C(=O)N[C@H](C=O)C[C@@H]3CCNC3=O)cc12` (stereo partly drawn) [Compound 344A], the EC50 is under 2 µM.

`COc1cccc2[nH]c(C(=O)N[C@@H](CC(C)C)C(=O)N[C@@H](C[C@@H]3CCNC3=O)C(N)C#N)cc12` (stereo partly drawn) [Compound 344C, N-[(1S)-1-[[(1S)-2-amino-2-cyano-1-[[(3S)-2-oxopyrrolidin-3-yl]methyl]ethyl]carbamoyl]-3-methyl-butyl]-4-methoxy-1H-indole-2-carboxamide]: the EC50 was under 2 µM. The value for `COc1cccc2[nH]c(C(=O)N3C[C@H](c4ccccc4)C[C@H]3C(=O)N[C@@H](C[C@@H]3CCNC3=O)C(O)C#N)cc12` (stereo partly drawn) [Compound 345] was under 2 µM; that for `CC(C)C[C@H](NC(=O)c1cc2c(OC(F)(F)F)cccc2[nH]1)C(=O)N[C@H](C#N)C[C@@H]1CCNC1=O` [Compound 361] was under 2 µM; that for `CC(C)C[C@H](NC(=O)c1nc2c(OC(F)(F)F)cccc2[nH]1)C(=O)N[C@H](C#N)C[C@@H]1CCNC1=O` [Compound 363] was under 2 µM. For `N#C[C@H](C[C@@H]1CCNC1=O)NC(=O)[C@H](CC1CC1)NC(=O)c1cc2c(C3CC3)cccc2[nH]1` [Compound 375A], the EC50 is under 2 µM. `CCOc1cccc2[nH]c(C(=O)N[C@@H](CC(C)C)C(=O)N[C@H](C#N)C[C@@H]3CCNC3=O)cc12` [Compound 377]: the EC50 was under 2 µM.

The compound `COc1cccc2[nH]c(C(=O)N3C[C@@H]4CCC[C@@H]4[C@H]3C(=O)N[C@H](C#N)C[C@@H]3CCNC3=O)cc12` [Compound 393] returned an EC50 of under 2 µM.

Turning to `COc1cccc2[nH]c(C(=O)N3CC4(CC4)C[C@H]3C(=O)N[C@H](C#N)C[C@@H]3CCNC3=O)cc12` [Compound 397], the EC50 is under 2 µM.

The compound `COc1cccc2[nH]c(C(=O)N3CC4(CCCC4)C[C@H]3C(=O)N[C@H](C#N)C[C@@H]3CCNC3=O)cc12` [Compound 401, (S)—N—((S)-1-cyano-2-((S)-2-oxopyrrolidin-3-yl)ethyl)-2-(4-methoxy-1H-indole-2-carbonyl)-2-azaspiro[4.4]nonane-3-carboxamide] returned an EC50 of under 2 µM.

With `COc1cccc2[nH]c(C(=O)N[C@@H](CC(C)(C)C)C(=O)N[C@H](C#N)C[C@@H]3CCNC3=O)cc12` [Compound 405, N-[(1S)-1-[[(1S)-1-cyano-2-[(3S)-2-oxopyrrolidin-3-yl]ethyl]carbamoyl]-3,3-dimethyl-butyl]-4-methoxy-1H-indole-2-carboxamide], the EC50 is under 2 µM.

Consider `COc1cccc2[nH]c(C(=O)N[C@@H](CC3CC3)C(=O)N[C@H](C#N)C[C@@H]3CCCNC3=O)cc12` [Compound 491, N-[(1S)-2-[[(1S)-1-cyano-2-[(3S)-2-oxo-3-piperidyl]ethyl]amino]-1-(cyclopropylmethyl)-2-oxo-ethyl]-4-methoxy-1H-indole-2-carboxamide], for which the EC50 was under 2 µM. `CC(C)C[C@H](NC(=O)c1cc2c(OC(F)F)cccc2[nH]1)C(=O)N[C@H](C#N)C[C@@H]1CCNC1=O` [Compound 509] yielded an EC50 of under 2 µM.

As for `CCNC(C#N)[C@H](C[C@@H]1CCNC1=O)NC(=O)[C@H](CC(C)C)NC(=O)c1cc2c(OC)cccc2[nH]1` (stereo partly drawn) [Compound 511, N-[(1S)-1-[[(1S)-2-cyano-2-(ethylamino)-1-[[(3S)-2-oxopyrrolidin-3-yl]methyl]ethyl]carbamoyl]-3-methyl-butyl]-4-methoxy-1H-indole-2-carboxamide], the EC50 is under 2 µM.

`N#C[C@H](C[C@@H]1CCNC1=O)NC(=O)[C@H](CC1CC1)NC(=O)c1cc2cc(Cl)ccc2[nH]1` [Compound 519] yielded an EC50 of under 2 µM. `N#C[C@H](C[C@@H]1CCNC1=O)NC(=O)[C@H](CC1CC1)NC(=O)c1cc2cccc(Cl)c2[nH]1` [Compound 531, 7-chloro-N-[(1S)-2-[[(1S)-1-cyano-2-[(3S)-2-oxopyrrolidin-3-yl]ethyl]amino]-1-(cyclopropylmethyl)-2-oxo-ethyl]-1H-indole-2-carboxamide]: the EC50 was under 2 µM. In turn, `COc1cccc2[nH]c(C(=O)N[C@@H](CC3CCC3)C(=O)N[C@H](C#N)C[C@@H]3CCNC3=O)cc12` [Compound 577] yielded an EC50 of under 2 µM. The value for `CC(C)C[C@H](NC(=O)/C=C/c1ccc(Cl)cc1F)C(=O)N[C@H](C#N)C[C@@H]1CCNC1=O` [Compound 598] was under 2 µM; that for `N#C[C@H](C[C@@H]1CCCNC1=O)NC(=O)[C@H](CC1CC1)NC(=O)c1cc2ccc(Cl)cc2[nH]1` [Compound 635, 6-Chloro-N-[(1S)-2-[[(1S)-1-cyano-2-[(3S)-2-oxo-3-piperidyl]ethyl]amino]-1-(cyclopropylmethyl)-2-oxo-ethyl]-1H-indole-2-carboxamide] was under 2 µM; that for `N#C[C@H](C[C@@H]1CCCNC1=O)NC(=O)[C@H](CC1CC1)NC(=O)c1nc2c(Cl)ccc(Cl)c2[nH]1` [Compound 637, 4,7-dichloro-N-[(1S)-2-[[(1S)-1-cyano-2-[(3S)-2-oxo-3-piperidyl]ethyl]amino]-1-(cyclopropylmethyl)-2-oxo-ethyl]-1H-benzimidazole-2-carboxamide] was under 2 µM.

On to `COc1cccc2[nH]c(C(=O)N[C@@H](CC(C)(C)C)C(=O)N[C@H](C#N)C[C@@H]3CCCNC3=O)cc12` [Compound 643, N-[(1S)-1-[[(1S)-1-cyano-2-[(3S)-2-oxo-3-piperidyl]ethyl]carbamoyl]-3,3-dimethyl-butyl]-4-methoxy-1H-indole-2-carboxamide], for which the EC50 was under 2 µM.
